The subject of this assay is M17-SYNwt cells. Nature of the assay: α-synuclein cytotoxicity assay (LDH leakage from paraquat-treated α-synuclein over-expressing neuroblastoma cells). It counts as cell-based, human. The following applies: paraquat 32 mM, 40 hours, LDH release; for EC50: Homo sapiens, Neuroblastoma cell, 10 point curves in duplicate; for %I: percent inhibition of synuclein cytotoxicity at most effective concentration of test compound, relative to untreated paraquat cells. An outline of the steps:
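M17 neuroblastoma cells over-expressing wild-type α-synuclein were challenged with paraquat, and cytotoxicity was read as LDH release. Protection was expressed as percent reduction of paraquat-induced LDH release relative to untreated paraquat cells and control cells. Actives were retested in 10-point duplicate dose responses.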
Background: Release of lactate dehydrogenase indicates damage to the cell membrane.

SMILES strings stand for the structures. ≈ marks a conversion by molar mass, not a printed value.

For `COc1cccc(Cc2nsc(N3CCN(C(=O)c4ccc5c(c4)OCO5)C(C)C3)n2)c1` (stereo not drawn) [Compound 119, 1-(1,3-benzodioxol-5-ylcarbonyl)-4-[3-(3-methoxybenzyl)-1,2,4-thiadiazol-5-yl]-2-methylpiperazine], the response was half-maximal at 0.095 µg/mL (≈ 0.21 µM) (EC50) and the “%I” value was determined as 72%.
On the same counts, the results for `CCCCc1ccc(C(=O)N2CCN(c3nc(Cc4ccc(F)cc4)ns3)CC2C)cc1` (stereo not drawn) [Compound 120, 1-(4-butylbenzoyl)-4-[3-(4-fluorobenzyl)-1,2,4-thiadiazol-5-yl]-2-methylpiperazine] are 0.0987 µg/mL (≈ 0.218 µM) and 120%.
On the same counts, the results for `CCCCCCc1ccc(C(=O)N2CCN(c3nc(Cc4ccc(F)cc4)ns3)CC2)cc1` [Compound 121, 1-(4-hexylbenzoyl)-4-[3-(4-fluorobenzyl)-1,2,4-thiadiazol-5-yl]piperazine] are 0.12 µg/mL (≈ 0.257 µM) and 64%.
As for `CC1CN(c2nc(Cc3ccc(F)cc3)ns2)CCN1C(=O)c1cccc(Cl)c1` (stereo not drawn) [Compound 122, 1-(3-chlorobenzoyl)-4-[3-(4-fluorobenzyl)-1,2,4-thiadiazol-5-yl]-2-methylpiperazine], a half-maximal effect (EC50) was put at 0.14 µg/mL (≈ 0.325 µM) and the “%I” value turned out to be 92%.
The matching figures for `COc1cccc(Cc2nsc(N3CCN(C(=O)c4ccc(F)cc4)C(C)C3)n2)c1` (stereo not drawn) [Compound 123, 1-(4-fluorobenzoyl)-4-[3-(3-methoxybenzyl)-1,2,4-thiadiazol-5-yl]-2-methylpiperazine]: 0.14 µg/mL (≈ 0.328 µM) and 95%.
On the same counts, the results for `COc1cccc(Cc2nsc(N3CCN(C(=O)c4ccc(C)cc4)C(C)C3)n2)c1` (stereo not drawn) [Compound 124, 1-(4-methylbenzoyl)-4-[3-(3-methoxybenzyl)-1,2,4-thiadiazol-5-yl]-2-methylpiperazine] are 0.14 µg/mL (≈ 0.331 µM) and 57%.
As to `CC1CN(c2nc(Cc3ccc(Cl)cc3)ns2)CCN1C(=O)c1cccc(F)c1` (stereo not drawn) [Compound 125, 1-(3-fluorobenzoyl)-4-[3-(4-chlorobenzyl)-1,2,4-thiadiazol-5-yl]-2-methylpiperazine], it took 0.16 µg/mL (≈ 0.371 µM) to reach a half-maximal effect (EC50) and the “%I” value is 68%.
For `CC1CN(c2nc(Cc3ccc(F)cc3)ns2)CCN1C(=O)c1ccccc1` (stereo not drawn) [Compound 126, 1-benzoyl-4-[3-(4-fluorobenzyl)-1,2,4-thiadiazol-5-yl]-2-methylpiperazine], the response was half-maximal at 0.21 µg/mL (≈ 0.53 µM) (EC50) and the “%I” value was 63%.
Turning to `CC1CN(c2nc(Cc3ccc(F)cc3)ns2)CCN1C(=O)c1ccc(F)cc1` (stereo not drawn) [Compound 127, 1-(4-fluorobenzoyl)-4-[3-(4-fluorobenzyl)-1,2,4-thiadiazol-5-yl]-2-methylpiperazine], a half-maximal effect (EC50) was put at 0.23 µg/mL (≈ 0.555 µM) and the “%I” value is reported as 108%.
Regarding `CC1CN(c2nc(Cc3ccc(F)cc3)ns2)CCN1C(=O)c1ccc(C(C)(C)C)cc1` (stereo not drawn) [Compound 128, 1-(4-tert-butylbenzoyl)-4-[3-(4-fluorobenzyl)-1,2,4-thiadiazol-5-yl]-2-methylpiperazine], a half-maximal effect (EC50) was put at 0.24 µg/mL (≈ 0.53 µM) and the “%I” value is given as 95%.
For the compound `CC1CN(c2nc(Cc3ccc(F)cc3)ns2)CCN1C(=O)c1ccc(-c2ccccc2)cc1` (stereo not drawn) [Compound 129, 1-(1,1'-biphenyl-4-ylcarbonyl)-4-[3-(4-fluorobenzyl)-1,2,4-thiadiazol-5-yl]-2-methylpiperazine], the midpoint of the response, the EC50, lay at 0.24 µg/mL (≈ 0.508 µM) and the “%I” value amounted to 61%.
For `CCc1ccc(C(=O)N2CCN(c3nc(Cc4ccc(C)cc4)ns3)CC2)cc1` [Compound 131, 1-(4-ethylbenzoyl)-4-[3-(4-methylbenzyl)-1,2,4-thiadiazol-5-yl]piperazine], the EC50 worked out at 0.25 µg/mL (≈ 0.615 µM) and the “%I” value is 91%.
Consider `CC1CN(c2nc(Cc3ccc(F)cc3)ns2)CCN1C(=O)c1ccc2ccccc2c1` (stereo not drawn) [Compound 132, 1-(2-naphthoyl)-4-[3-(4-fluorobenzyl)-1,2,4-thiadiazol-5-yl]-2-methylpiperazine], for which the EC50 stood at 0.26 µg/mL (≈ 0.582 µM) and the “%I” value is listed as 74%.
Turning to `COc1ccccc1C(=O)N1CCN(c2nc(Cc3ccc(F)cc3)ns2)CC1C` (stereo not drawn) [Compound 133, 1-(2-methoxybenzoyl)-4-[3-(4-fluorobenzyl)-1,2,4-thiadiazol-5-yl]-2-methylpiperazine], the midpoint of the response, the EC50, lay at 0.29 µg/mL (≈ 0.68 µM) and the “%I” value is on record as 118%.
For the compound `CCCCCc1ccc(C(=O)N2CCN(c3nc(Cc4ccc(C)cc4)ns3)CC2C)cc1` (stereo not drawn) [Compound 134, 1-(4-pentylbenzoyl)-4-[3-(4-methylbenzyl)-1,2,4-thiadiazol-5-yl]-2-methylpiperazine], the midpoint of the response, the EC50, lay at 0.3 µg/mL (≈ 0.648 µM) and the “%I” value was found to be 75%.
Take `CC1CN(c2nc(Cc3ccc(F)cc3)ns2)CCN1C(=O)c1ccc(Br)cc1` (stereo not drawn) [Compound 135, 1-(4-bromobenzoyl)-4-[3-(4-fluorobenzyl)-1,2,4-thiadiazol-5-yl]-2-methylpiperazine]: the EC50 amounted to 0.31 µg/mL (≈ 0.652 µM) and the “%I” value was found to be 73%.
On the same counts, the results for `COc1ccc(C(=O)N2CCN(c3nc(Cc4ccc(F)cc4)ns3)CC2C)c(OC)c1` (stereo not drawn) [Compound 136, 1-(2,4-dimethoxybenzoyl)-4-[3-(4-fluorobenzyl)-1,2,4-thiadiazol-5-yl]-2-methylpiperazine] are 0.34 µg/mL (≈ 0.745 µM) and 83%.
With `O=C(c1cc(Cl)cc(Cl)c1)N1CCN(c2nc(Cc3ccc(F)cc3)ns2)CC1` [Compound 137, 1-(3,5-dichlorobenzoyl)-4-[3-(4-fluorobenzyl)-1,2,4-thiadiazol-5-yl]piperazine], it took 0.35 µg/mL (≈ 0.775 µM) to reach a half-maximal effect (EC50) and the “%I” value is 68%.
For the compound `O=C(c1cccc(Cl)c1)N1CCN(c2nc(Cc3ccc(F)cc3)ns2)CC1` [Compound 138, 1-(3-chlorobenzoyl)-4-[3-(4-fluorobenzyl)-1,2,4-thiadiazol-5-yl]piperazine], the EC50 was 0.36 µg/mL (≈ 0.863 µM) and the “%I” value is 81%.
On to `Cc1ccc(C(=O)N2CCN(c3nc(Cc4ccc(F)cc4)ns3)CC2C)cc1` (stereo not drawn) [Compound 139, 1-(4-methylbenzoyl)-4-[3-(4-fluorobenzyl)-1,2,4-thiadiazol-5-yl]-2-methylpiperazine], for which a half-maximal response (EC50) required 0.4 µg/mL (≈ 0.974 µM) and the “%I” value is on record as 87%.
`Cc1ccccc1C(=O)N1CCN(c2nc(Cc3ccc(F)cc3)ns2)CC1C` (stereo not drawn) [Compound 140, 1-(2-methylbenzoyl)-4-[3-(4-fluorobenzyl)-1,2,4-thiadiazol-5-yl]-2-methylpiperazine]: the EC50 worked out at 0.45 µg/mL (≈ 1.1 µM) and the “%I” value came to 56%.
As to `Cc1ccc(C(=O)N2CCN(c3nc(Cc4ccc(F)cc4)ns3)CC2)cc1` [Compound 141, 1-(4-methylbenzoyl)-4-[3-(4-fluorobenzyl)-1,2,4-thiadiazol-5-yl]piperazine], the EC50 worked out at 0.49 µg/mL (≈ 1.24 µM) and the “%I” value turned out to be 75%.
The matching figures for `CC1CN(c2nc(Cc3ccc(F)cc3)ns2)CCN1C(=O)c1cccc(Br)c1` (stereo not drawn) [Compound 142, 1-(3-bromobenzoyl)-4-[3-(4-fluorobenzyl)-1,2,4-thiadiazol-5-yl]-2-methylpiperazine]: 0.5 µg/mL (≈ 1.05 µM) and 72%.
In the case of `CCc1ccc(C(=O)N2CCN(c3nc(Cc4cccc(OC)c4)ns3)CC2C)cc1` (stereo not drawn) [Compound 143, 1-(4-ethylbenzoyl)-4-[3-(3-methoxybenzyl)-1,2,4-thiadiazol-5-yl]-2-methylpiperazine], the EC50 came out at 0.56 µg/mL (≈ 1.28 µM) and the “%I” value was found to be 89%.
As for `CC1CN(c2nc(Cc3ccc(F)cc3)ns2)CCN1C(=O)c1cccc(C(F)(F)F)c1` (stereo not drawn) [Compound 145, 1-(3-trifluoromethylbenzoyl)-4-[3-(4-fluorobenzyl)-1,2,4-thiadiazol-5-yl]-2-methylpiperazine], a half-maximal response (EC50) required 0.62 µg/mL (≈ 1.33 µM) and the “%I” value is given as 60%.
As to `COc1cccc(Cc2nsc(N3CCN(C(=O)c4ccc(C(C)(C)C)cc4)C(C)C3)n2)c1` (stereo not drawn) [Compound 146, 1-(4-tert-butylbenzoyl)-4-[3-(3-methoxybenzyl)-1,2,4-thiadiazol-5-yl]-2-methylpiperazine], the EC50 stood at 0.72 µg/mL (≈ 1.55 µM) and the “%I” value was 94%.
Consider `CCc1ccc(C(=O)N2CCN(c3nc(Cc4ccc(C)cc4)ns3)CC2C)cc1` (stereo not drawn) [Compound 147, 1-(4-ethylbenzoyl)-4-[3-(4-methylbenzyl)-1,2,4-thiadiazol-5-yl]-2-methylpiperazine], for which the EC50 came to 0.84 µg/mL (≈ 2 µM) and the “%I” value is 88%.
The matching figures for `CC1CN(c2nc(Cc3ccc(F)cc3)ns2)CCN1C(=O)c1ccccc1Br` (stereo not drawn) [Compound 148, 1-(2-bromobenzoyl)-4-[3-(4-fluorobenzyl)-1,2,4-thiadiazol-5-yl]-2-methylpiperazine]: 0.86 µg/mL (≈ 1.81 µM) and 56%.
On the same counts, the results for `Cc1ccc(Cc2nsc(N3CCN(C(=O)c4ccccc4F)C(C)C3)n2)cc1` (stereo not drawn) [Compound 149, 1-(2-fluorobenzoyl)-4-[3-(4-methylbenzyl)-1,2,4-thiadiazol-5-yl]-2-methylpiperazine] are 0.98 µg/mL (≈ 2.39 µM) and 105%.
Consider `CC1CN(c2nc(Cc3ccccc3)ns2)CCN1C(=O)c1cccc(F)c1` (stereo not drawn) [Compound 150, 1-(3-fluorobenzoyl)-4-[3-benzyl-1,2,4-thiadiazol-5-yl]-2-methylpiperazine], for which the midpoint of the response, the EC50, lay at 1.14 µg/mL (≈ 2.88 µM) and the “%I” value is 99%.
With `Cc1ccc(Cc2nsc(N3CCN(C(=O)c4ccc(F)cc4)C(C)C3)n2)cc1` (stereo not drawn) [Compound 151, 1-(4-fluorobenzoyl)-4-[3-(4-methylbenzyl)-1,2,4-thiadiazol-5-yl]-2-methylpiperazine], a half-maximal response (EC50) required 1.14 µg/mL (≈ 2.78 µM) and the “%I” value worked out at 73%.
`Cc1ccccc1C(=O)N1CCN(c2nc(Cc3ccc(F)cc3)ns2)CC1` [Compound 152, 1-(2-methylbenzoyl)-4-[3-(4-fluorobenzyl)-1,2,4-thiadiazol-5-yl]piperazine]: a half-maximal response (EC50) required 1.15 µg/mL (≈ 2.9 µM) and the “%I” value was found to be 66%.
On the same counts, the results for `O=C(c1ccc(F)cc1)N1CCN(c2nc(Cc3ccc(Cl)cc3)ns2)CC1` [Compound 153, 1-(4-fluorobenzoyl)-4-[3-(4-chlorobenzyl)-1,2,4-thiadiazol-5-yl]piperazine] are 1.44 µg/mL (≈ 3.45 µM) and 53%.

For orientation: EC50 means the concentration giving half of the maximal effect. Low readings indicate a more potent agent, high ones a less potent agent.

Values taken from patent EP1981504B1, “THIADIAZOLE DERIVATIVES FOR THE TREATMENT OF NEURO DEGENERATIVE DISEASES” (NV reMYND, priority 2006, dated 2007).
